According to article PMC12690644 (RSC Advances, 2025):

Key:
β-secretase (BACE-1) = β-secretase (BACE-1) (Homo sapiens, UniProt P56817); test: fluorescence kit assay, slope based; format: biochemical
[1] = molecular target: acetylcholinesterase (AChE); test: colorimetric kinetic kit assay, […] nm; format: biochemical; conditions: room temperature, 10-15 min preincubation

Chain of β-secretase (BACE-1) (P56817 46-501): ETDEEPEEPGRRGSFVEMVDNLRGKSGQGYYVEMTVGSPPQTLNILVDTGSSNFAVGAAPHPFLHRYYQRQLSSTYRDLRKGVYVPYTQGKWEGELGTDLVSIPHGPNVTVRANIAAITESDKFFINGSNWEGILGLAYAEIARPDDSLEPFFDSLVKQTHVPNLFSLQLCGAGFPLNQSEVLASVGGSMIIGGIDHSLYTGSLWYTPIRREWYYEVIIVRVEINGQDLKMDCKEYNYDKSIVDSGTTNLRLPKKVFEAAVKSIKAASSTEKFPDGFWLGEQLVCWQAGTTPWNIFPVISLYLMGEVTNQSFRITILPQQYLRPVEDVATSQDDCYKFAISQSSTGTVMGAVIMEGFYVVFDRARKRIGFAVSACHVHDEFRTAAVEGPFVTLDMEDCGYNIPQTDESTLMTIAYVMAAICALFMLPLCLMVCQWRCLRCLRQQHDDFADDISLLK

| Compound | IC50 (β-secretase (BACE-1)) | AChE (μg mL^-1 ± SD) [1] |
| --- | --- | --- |
| O=C1C[C@@H](c2ccc(O)cc2)Oc2cc(O)cc(O)c21 [compound 1, naringenin] | 1550 nM | 0.212 ± 0.007 µg/mL |
| O=c1c(O)c(-c2ccc(O)cc2)oc2cc(O)cc(O)c12 [compound 2, 3,4′,5,7-tetrahydroxyflavone] | 25100 nM | 1.099 ± 0.03 µg/mL |
| COc1c(-c2ccc(O)cc2)oc2cc(O)cc(O)c2c1=O [compound 3, isokaempferide] | 446 nM | 0.483 ± 0.015 µg/mL |
| CC1=CC(=O)CC(C)(C)[C@@]1(O)/C=C/[C@@H](C)O[C@@H]1O[C@H](CO)[C@@H](O)[C@H](O)[C@H]1O [compound 4, vomifoliol-9-O-β-D-glucopyranoside] | 171 nM | 0.452 ± 0.014 µg/mL |
| C[N+](C)(CCl)CCc1ccc(O)cc1 [compound 5, N-chloromethyl hordenine] | 1250 nM | 0.076 ± 0.002 µg/mL |
| CC(=O)[N+](C)(C)CCc1ccc(O)cc1 [compound 6, N-acetyl hordenine] | 8210 nM | 2.255 ± 0.074 µg/mL |
| CC(=O)[N+](C)(CCl)CCc1ccc(O)cc1 (centres unmarked) [compound 7, N-acetyl-N-chloromethyl-N-methyl tyramine] | 494 nM | 0.607 ± 0.02 µg/mL |
